Measured values taken from patent US9914712B2, “Antibacterial thiazolecarboxylic acids” (priority 2013, dated 2018).

Experiments:
[1] = system: NTBC023 strain: Klebsiella pneumoniae producing VIM-1+SHV-5; experiment: MIC of meropenem in presence of the inhibitor, broth microdilution; format: cell-based; conditions: compound at 100 μM, 37° C., 18-20 h
Description: (§1) The minimal inhibitory concentration (MIC) of meropenem in presence of the inhibitor is routinely assessed against 3 representative clinical strains: • NTBC020 Strain: Escherichia coli producing NDM-1+TEM-1+CTX-M-15, (isolated in Australia in 2009); • NTBC023 strain: Klebsiella pneumoniae producing VIM-1+SHV-5, (isolated in France in 2002); • NTBC062 strain: Klebsiella pneumoniae producing IMP-1+TEM-1, (isolated in France in 2012);
(§2) The assay was performed according to the standard broth microdilution method described by the Clinical and Laboratory Standards Institute (CLSI-M7-A7—Methods for dilution antimicrobial susceptibility tests for bacteria that grow aerobically; Approved standard; CLSI, Wayne, Pa., USA. 2006). This method involves the use of small volumes of broth dispensed in sterile, plastic 96-wells microdilution plates. The compounds were tested at a concentration of 100 μM and controls included the susceptibility tests for the three selected strains without the compounds and for the two reference strains E. coli ATCC 25922 and Pseudomonas aeruginosa ATCC 27853 as Quality Controls.
(§3) From a stock solution at 20 mM in DMSO, compounds were prepared by diluting 0.04 mL of the compound solution in 0.04 mL of Mueller-Hinton (MH) broth (2-fold dilution). Then, 0.001 mL of the compound dilution was distributed in the 96-wells microdilution plates to give a final concentration of 100 μM for a final volume of 0.1 mL by well.
(§4) From a meropenem stock solution at 10 mg/ml in water, meropenem 2-fold serial dilutions were prepared in MH broth at twice the desired final concentrations, e.g from 512 to 0.0037 μg/ml. The 96-wells microdilution plates were then filled with 0.05 mL of the meropenem dilutions. For each susceptibility test, two wells were left free of antibiotic and filled with 0.05 mL of sterile MH broth to serve as growth controls.
(§5) The bacterial inoculum was prepared by direct colony suspension from a 24 h-agar plate in saline solution (NaCl 9 g/L). The suspension was adjusted to a 0.5 MacFarland turbidity standard (1-2×10^8 CFU/mL) and then diluted 1:100 in MH broth. 0.05 mL of the bacterial dilution was then inoculated to each well giving a final volume of 0.1 mL and a final bacterial concentration of approximately 5×10^5 CFU/mL.
(§6) Microdilution plates were incubated at 37° C. in an ambient air incubator for 18-20 h.

[2] = system: NTBC020 Strain: Escherichia coli producing NDM-1+TEM-1+CTX-M-15; experiment: as above; format: cell-based; conditions: compound at 100 μM, 37° C., 18-20 h
Description: as §1, §2, §3, §4, §5, §6

VIM-2 = biological target: T1, VIM-2 (Escherichia coli, UniProt Q5U7L7); experiment: In vitro MBL inhibition assay, imipenem hydrolysis (VIM-2); format: biochemical; conditions: Ki VIM-2, imipenem substrate, Ki from IC50 by Cheng-Prusoff, Km 9 μM
T1 construct: made in house
Description: The MBL enzyme VIM-2 is produced and purified as disclosed in Borgianni et al, Antimicrobial Agents & Chemotherapy, (2010), 54(8), 3197-3204.
(§7) Reaction buffers were prepared in a UV-transparent 96-well microplate, which buffer contains 10 mM HEPES pH 7.5, 50 μM ZnSO4, 20 μg/mL BSA. An amount of 75 ng of protein was added to each well.
(§8) Spectrophometric assays are performed to determine NDM-1/VIM-2/IMP-1 carbapenemase activity using purified proteins (50 ng for NDM-1/VIM-2, 25 ng IMP-1) from NDM-1/VIM-2/IMP-1 expressing bacteria using […] of imipenem as substrate in 10 mM HEPES pH 7.5, 50 μM ZnSO4. MBL hydrolysis is measured at 299 nm for 10 minutes at 30° C. as the absorbance changes due to the opening of beta-lactam ring of the antibiotic.
(§9) The Ki values obtained for selected example compounds are shown in Table 3, where they are compared with the values for pyridine-2-carboxylic acid.

IMP-1 = biological target: T2, IMP-1 (Serratia marcescens, UniProt P52699); experiment: In vitro MBL inhibition assay, imipenem hydrolysis (IMP-1); format: biochemical; conditions: Ki IMP-1, imipenem substrate, Ki from IC50 by Cheng-Prusoff, Km 25 μM
T2 construct: made in house
T2 sequence (P52699 19-246, species assumed): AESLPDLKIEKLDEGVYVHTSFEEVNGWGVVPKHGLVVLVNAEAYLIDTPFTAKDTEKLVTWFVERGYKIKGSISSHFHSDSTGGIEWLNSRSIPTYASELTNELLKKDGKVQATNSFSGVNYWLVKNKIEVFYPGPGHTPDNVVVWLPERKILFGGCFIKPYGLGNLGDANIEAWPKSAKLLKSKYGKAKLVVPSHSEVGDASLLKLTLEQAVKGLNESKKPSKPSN
Description: The MBL enzyme IMP-1 is produced and purified as disclosed in Laraki et al, Antimicrobial Agents & Chemotherapy, (1999), 43(4), 902-906.
as §7, §8, §9

NTBC039 = experiment: MIC of meropenem in presence of the inhibitor, broth microdilution; format: cell-based; conditions: compound at 100 μM, 37° C., 18-20 h
NDM-1 = biological target: T3, NDM-1 (Klebsiella pneumoniae, UniProt C7C422); experiment: In vitro MBL inhibition assay, imipenem hydrolysis (NDM-1); format: biochemical; conditions: Ki NDM-1, imipenem substrate, Ki from IC50 by Cheng-Prusoff, Km 70 μM
T3 construct: made in house
T3 sequence (C7C422 29-270 limits assumed): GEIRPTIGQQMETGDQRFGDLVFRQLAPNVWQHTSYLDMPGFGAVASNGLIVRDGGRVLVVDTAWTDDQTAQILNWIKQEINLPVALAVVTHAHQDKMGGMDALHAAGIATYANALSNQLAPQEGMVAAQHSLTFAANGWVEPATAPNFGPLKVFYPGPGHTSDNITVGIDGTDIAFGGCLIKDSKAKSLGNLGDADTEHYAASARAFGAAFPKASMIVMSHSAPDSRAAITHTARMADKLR
Description: NDM-1 is produced and purified as disclosed in Yong et al, Antimicrobial Agents & Chemotherapy, (2009) 53(12), 5046-54.
as §7, §8, §9

Compound	MIC of meropenem, strain NTBC023 [1]	MIC of meropenem, strain NTBC020 [2]	Ki (VIM-2)	Ki (IMP-1)	MIC of meropenem, strain NTBC039 (NTBC039)	Ki (NDM-1)
O=C(O)c1ncsc1NS(=O)(=O)c1ccccc1 [Compound 1, 5-benzenesulfonamido-1,3-thiazole-4-carboxylic acid]	64 µg/mL	32 µg/mL	320 nM	80 nM	16 µg/mL	1200 nM
O=C(O)c1ncsc1NS(=O)(=O)c1csc2ccccc12 [Compound 41, 5-(1-benzothiophene-3-sulfonamido)-1,3-thiazole-4-carboxylic acid]	16 µg/mL	64 µg/mL	220 nM	80 nM	4 µg/mL	670 nM
O=C(O)c1ncsc1NS(=O)(=O)CC1CCOCC1 [Compound 111, 5-[(oxan-4-ylmethyl)sulfonamido]-1,3-thiazole-4-carboxylic acid]	8 µg/mL	4 µg/mL	220 nM	900 nM	0.25 µg/mL	2800 nM
O=C(O)c1ncsc1NS(=O)(=O)c1ccc(N2CCCCC2)nc1 [Compound 138, 5-[6-(piperidin-1-yl)pyridin-3-ylsulfonamido]-1,3-thiazole-4-carboxylic acid]	16 µg/mL	32 µg/mL	10 nM	130 nM	1 µg/mL	430 nM
O=C(O)c1ncsc1NS(=O)(=O)c1ccc(OC2CCNC2)cc1 (centres unmarked) [Compound 163, 5-[4-(pyrrolidin-3-yloxy)phenylsulfonamido]-1,3-thiazole-4-carboxylic acid]	32 µg/mL	16 µg/mL	280 nM	1000 nM	16 µg/mL	370 nM
O=C(O)c1ncsc1NS(=O)(=O)Cc1cccnc1 [Compound 170, 5-(3-pyridylmethylsulfonylamino)thiazole-4-carboxylic acid]	1 µg/mL	16 µg/mL	460 nM		0.25 µg/mL	4200 nM
N[C@@H](C(=O)N1CCC(c2ccc(S(=O)(=O)Nc3scnc3C(=O)O)cc2)CC1)c1ccccc1 [Compound 172, S-5-[[4-[1-(2-amino-2-phenyl-acetyl)-4-piperidyl]phenyl]sulfonylamino]thiazole-4-carboxylic acid]	8 µg/mL	64 µg/mL	50 nM	760 nM	8 µg/mL	220 nM
N[C@@H](C(=O)N1CCC(c2ccc(S(=O)(=O)Nc3scnc3C(=O)O)cc2)CC1)c1ccccc1 [Compound 173, R-5-[[4-[1-(2-amino-2-phenyl-acetyl)-4-piperidyl]phenyl]sulfonylamino]thiazole-4-carboxylic acid]	8 µg/mL	128 µg/mL	40 nM	330 nM	8 µg/mL	180 nM
